According to US10072006B2 (MUTABILIS, priority 2015, dated 2018):
In brackets after ≈: the same amount, converted by molar mass.

Experiments:
CTX-M-15 = biological target: T1, CTX-M-15 (Escherichia coli, UniProt Q9EXV5); assay: β-lactamase inhibitory activity, determination of IC50 (nitrocefin hydrolysis); type: biochemical
T1 construct: made in house; host or cells: E. coli

KPC-2 = biological target: T2, KPC-2 (Klebsiella pneumoniae, UniProt Q9F663); assay: as above; type: biochemical
T2 construct: made in house; host or cells: E. coli
T2 sequence (Q9F663 25-293 limits assumed): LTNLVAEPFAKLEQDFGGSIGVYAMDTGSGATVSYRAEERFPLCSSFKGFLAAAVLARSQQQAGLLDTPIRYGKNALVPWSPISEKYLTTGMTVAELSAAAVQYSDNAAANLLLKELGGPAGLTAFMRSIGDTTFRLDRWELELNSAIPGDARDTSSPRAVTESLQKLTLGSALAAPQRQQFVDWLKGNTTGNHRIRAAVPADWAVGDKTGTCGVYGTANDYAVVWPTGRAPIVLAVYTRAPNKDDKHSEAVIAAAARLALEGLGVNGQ

AmpC (P99) = AmpC (P99) (Enterobacter cloacae, UniProt P05364); assay: biochemical
AmpC (P99), sequence (P05364 21-381): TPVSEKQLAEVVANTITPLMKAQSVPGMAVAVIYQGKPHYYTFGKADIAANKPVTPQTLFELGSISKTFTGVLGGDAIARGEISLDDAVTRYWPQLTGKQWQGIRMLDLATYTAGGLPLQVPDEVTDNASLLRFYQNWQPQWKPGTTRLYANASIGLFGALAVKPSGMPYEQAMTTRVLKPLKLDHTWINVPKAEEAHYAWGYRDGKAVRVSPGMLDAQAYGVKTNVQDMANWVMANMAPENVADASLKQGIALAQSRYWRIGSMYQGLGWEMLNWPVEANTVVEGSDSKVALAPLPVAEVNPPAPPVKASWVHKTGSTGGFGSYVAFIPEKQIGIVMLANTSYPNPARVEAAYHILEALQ

E. coli RGN238 (OXA-1) = assay: MIC of compounds and synergy with ceftazidime (broth microdilution); type: cell-based; details: Escherichia coli, 18 h, read-out: MIC compounds of the invention alone
Protocol: (§1) Briefly, compounds alone according to the invention were prepared in DMSO and spotted (2 μL each) on sterile polystyrene plates (Corning, 3788). […] Microplates were incubated for 16-20 h at 35° C. in ambient air. The MIC of the compounds was defined as the lowest concentration of said compounds that prevented bacterial growth as read by visual inspection.

[1] = system: K. pneumoniae BAA-1898 (TEM-1, SHV-11, SHV-12, KPC-2); assay: as above; type: cell-based
Protocol: as §1

[2] = system: E. cloacae P99 (Derepressed ampC); assay: as above; type: cell-based
Protocol: as §1

[3] = system: K. pneumoniae 6299 (TEM-1, SHV-11, OXA-163); assay: as above; type: cell-based
Protocol: as §1

[4] = system: P. aeruginosa UFR92 (Derepressed ampC, OprD-); assay: as above; type: cell-based; details: for MIC, combination of CAZ and compounds of the invention: MIC of ceftazidime with compound fixed at 4 μg/mL, strain UFR92 (P. aeruginosa); for MIC: Pseudomonas aeruginosa, 18 h, read-out: MIC compounds of the invention alone
Protocol: as §1

[5] = system: E. coli 131119 (TEM-1, OXA-48); assay: as above; type: cell-based; details: Escherichia coli, 18 h, read-out: MIC compounds of the invention alone
Protocol: as §1

[6] = system: P. aeruginosa UFR93 (Derepressed ampC, OprD-, MexAB+, MexXY+); assay: as above; type: cell-based; details: for MIC, combination of CAZ and compounds of the invention: MIC of ceftazidime with compound fixed at 4 μg/mL, strain UFR93 (P. aeruginosa); for MIC: Pseudomonas aeruginosa, 18 h, read-out: MIC compounds of the invention alone
Protocol: as §1

[7] = system: P. aeruginosa UFR90 (Derepressed ampC, OprD-); assay: as above; type: cell-based; details: for MIC, combination of CAZ and compounds of the invention: MIC of ceftazidime with compound fixed at 4 μg/mL, strain UFR90 (P. aeruginosa); for MIC: Pseudomonas aeruginosa, 18 h, read-out: MIC compounds of the invention alone
Protocol: as §1

[8] = system: P. aeruginosa UFR47 (VIM-1); assay: as above; type: cell-based
Protocol: as §1

[9] = system: P. aeruginosa CIP105250 (OXA-15); assay: as above; type: cell-based
Protocol: as §1

[10] = system: P. aeruginosa UFR59 (IMP-29); assay: as above; type: cell-based
Protocol: as §1

[11] = system: P. aeruginosa UFR35 (OXA-23); assay: as above; type: cell-based
Protocol: as §1

[12] = system: P. aeruginosa CIP107051 (TEM-24); assay: as above; type: cell-based
Protocol: as §1

[13] = system: P. aeruginosa UFR48 (VIM-2); assay: as above; type: cell-based
Protocol: as §1

OXA-11 = biological target: T3, OXA-11 (Pseudomonas aeruginosa, UniProt Q06778); assay: β-lactamase inhibitory activity, determination of IC50 (nitrocefin hydrolysis); type: biochemical
T3 construct: made in house; host or cells: E. coli
T3 sequence (Q06778 21-266): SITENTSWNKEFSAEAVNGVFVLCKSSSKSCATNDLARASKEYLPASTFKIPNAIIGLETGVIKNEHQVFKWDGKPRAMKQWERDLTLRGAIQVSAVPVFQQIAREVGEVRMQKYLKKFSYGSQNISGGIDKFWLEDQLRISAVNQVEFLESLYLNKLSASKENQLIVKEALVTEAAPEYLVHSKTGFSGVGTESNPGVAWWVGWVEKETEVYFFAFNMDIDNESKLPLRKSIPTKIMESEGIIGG

AmpC (PAE) = AmpC (PAE) (Pseudomonas aeruginosa, UniProt P24735); assay: biochemical
AmpC (PAE), sequence (P24735 27-397): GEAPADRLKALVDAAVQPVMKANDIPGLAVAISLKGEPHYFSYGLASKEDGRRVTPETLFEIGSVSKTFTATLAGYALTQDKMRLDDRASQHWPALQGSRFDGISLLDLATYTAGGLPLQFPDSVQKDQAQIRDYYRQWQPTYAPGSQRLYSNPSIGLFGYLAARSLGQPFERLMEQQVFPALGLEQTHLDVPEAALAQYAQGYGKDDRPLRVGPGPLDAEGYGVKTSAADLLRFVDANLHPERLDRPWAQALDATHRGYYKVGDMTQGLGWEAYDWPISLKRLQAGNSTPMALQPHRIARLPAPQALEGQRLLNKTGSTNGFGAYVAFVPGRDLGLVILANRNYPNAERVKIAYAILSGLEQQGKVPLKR

TEM-1 = biological target: T4, TEM-1 (Escherichia coli, UniProt P62593); assay: β-lactamase inhibitory activity, determination of IC50 (nitrocefin hydrolysis); type: biochemical; details: class (A), 30 min pre-incubation
T4 construct: made in house; host or cells: E. coli
T4 sequence (P62593 24-286 limits assumed): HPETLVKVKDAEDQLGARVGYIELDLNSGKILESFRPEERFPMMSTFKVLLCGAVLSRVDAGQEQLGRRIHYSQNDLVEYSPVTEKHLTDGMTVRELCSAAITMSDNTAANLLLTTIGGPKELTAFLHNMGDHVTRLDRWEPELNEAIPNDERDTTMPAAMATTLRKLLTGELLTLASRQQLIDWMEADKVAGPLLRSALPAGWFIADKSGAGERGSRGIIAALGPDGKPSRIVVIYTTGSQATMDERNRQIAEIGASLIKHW

SHV-1 = biological target: T5, SHV-1 (Klebsiella pneumoniae, UniProt P0AD64); assay: as above; type: biochemical
T5 construct: made in house; host or cells: E. coli
T5 sequence (P0AD64 22-286): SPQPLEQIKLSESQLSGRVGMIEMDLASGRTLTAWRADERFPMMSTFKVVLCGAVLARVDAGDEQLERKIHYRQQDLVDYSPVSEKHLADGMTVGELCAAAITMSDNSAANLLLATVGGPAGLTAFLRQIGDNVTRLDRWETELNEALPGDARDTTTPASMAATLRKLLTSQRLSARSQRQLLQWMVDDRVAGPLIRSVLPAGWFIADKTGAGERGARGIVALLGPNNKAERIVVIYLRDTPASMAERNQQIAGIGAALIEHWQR

OXA-15 = biological target: T6, OXA-15 (Pseudomonas aeruginosa, UniProt Q51574); assay: as above; type: biochemical
T6 construct: made in house; host or cells: E. coli
T6 sequence (Q51574 22-275): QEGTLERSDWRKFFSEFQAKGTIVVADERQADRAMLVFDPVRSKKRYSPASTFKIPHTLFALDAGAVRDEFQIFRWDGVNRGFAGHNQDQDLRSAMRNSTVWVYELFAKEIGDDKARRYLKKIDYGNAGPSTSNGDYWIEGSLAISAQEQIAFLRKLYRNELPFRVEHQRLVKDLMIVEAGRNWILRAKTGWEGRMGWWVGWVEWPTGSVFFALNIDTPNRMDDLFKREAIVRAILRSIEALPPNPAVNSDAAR

OXA-1 = biological target: T7, OXA-1 (Escherichia coli, UniProt P13661); assay: as above; type: biochemical
T7 construct: made in house; host or cells: E. coli
T7 sequence (P13661 26-276): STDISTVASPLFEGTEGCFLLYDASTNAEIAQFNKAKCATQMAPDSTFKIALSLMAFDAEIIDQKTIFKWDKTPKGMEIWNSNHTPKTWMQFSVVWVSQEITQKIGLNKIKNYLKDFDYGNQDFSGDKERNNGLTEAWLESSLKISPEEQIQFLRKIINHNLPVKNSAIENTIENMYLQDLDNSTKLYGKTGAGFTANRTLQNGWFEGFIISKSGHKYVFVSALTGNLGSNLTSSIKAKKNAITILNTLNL

OXA-48 = biological target: T8, OXA-48 (Klebsiella pneumoniae, UniProt Q6XEC0); assay: as above; type: biochemical
T8 construct: made in house; host or cells: E. coli
T8 sequence (Q6XEC0 23-265 limits assumed): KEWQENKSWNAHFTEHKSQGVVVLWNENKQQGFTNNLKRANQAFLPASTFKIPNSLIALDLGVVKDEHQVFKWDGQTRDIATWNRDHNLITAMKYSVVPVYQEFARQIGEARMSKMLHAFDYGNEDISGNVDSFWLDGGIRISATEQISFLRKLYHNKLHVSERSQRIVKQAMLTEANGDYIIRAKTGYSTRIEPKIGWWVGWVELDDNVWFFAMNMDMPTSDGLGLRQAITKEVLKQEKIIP

[14] = system: E. coli 190317 (TEM-1, SHV-12, CTX-M-15, OXA-1); assay: microbe, parasite or virus in culture; type: cell-based; details: for MIC: Escherichia coli, 18 h, read-out: MIC compounds of the invention alone; for MIC, combination of CAZ and compounds of the invention: MIC of ceftazidime with compound fixed at 4 μg/mL, strain 190317 (E. coli)
Protocol: as §1

[15] = system: E. cloacae UFR70 (TEM-1, CTX-M-15, CMY-2, OXA-1, Porin loss); assay: MIC of compounds and synergy with ceftazidime (broth microdilution); type: cell-based
Protocol: as §1

[16] = system: E. cloacae UFR85 (TEM-1, CTX-M-15, derepressed ampC); assay: microbe, parasite or virus in culture; type: cell-based
Protocol: […] […] Microplates were incubated for 16-20 h at 35° C. in ambient air. The MIC of the compounds was defined as the lowest concentration of said compounds that prevented bacterial growth as read by visual inspection.

[17] = system: K. pneumoniae UFR68 (TEM-1, SHV-11, CTX-M-15, KPC-3); assay: microbe, parasite or virus in culture; type: cell-based
[18] = system: K. pneumoniae 200047 (TEM-1, SHV-32, CTX-M-15, OXA-1); assay: microbe, parasite or virus in culture; type: cell-based
[19] = system: K. oxytoca UFR21 (TEM-1, CTX-M-15, OXA-48); assay: microbe, parasite or virus in culture; type: cell-based
[20] = system: K. pneumoniae 160143 (TEM-1, SHV-1, CTX-M-15, KPC-2, OXA-1); assay: microbe, parasite or virus in culture; type: cell-based
Protocol: as §1

[21] = system: E. cloacae 260508 (TEM-1, CTX-M-15); assay: microbe, parasite or virus in culture; type: cell-based
Protocol: as §1

[22] = Enterobacter cloacae, 18 h, read-out: MIC compounds of the invention alone
[23] = Klebsiella pneumoniae, 18 h, read-out: MIC compounds of the invention alone
[24] = Pseudomonas aeruginosa, 18 h, read-out: MIC compounds of the invention alone

T1 sequence (Q9EXV5 entry or part of it): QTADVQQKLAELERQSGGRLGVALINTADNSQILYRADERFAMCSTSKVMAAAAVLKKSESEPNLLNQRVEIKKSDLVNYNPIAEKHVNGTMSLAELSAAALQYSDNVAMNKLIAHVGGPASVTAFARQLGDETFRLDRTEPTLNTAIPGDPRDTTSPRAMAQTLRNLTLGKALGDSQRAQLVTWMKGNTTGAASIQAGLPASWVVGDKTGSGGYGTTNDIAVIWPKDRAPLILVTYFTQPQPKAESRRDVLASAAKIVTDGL

`NC[C@@H]1C=C(c2cnco2)[C@@H]2CN1C(=O)N2OC(F)(F)C(=O)O` (relative stereo) [Example 3, lithium and 2,2,2-trifluoroacetate [trans-2-(azaniumylmethyl)-4-oxazol-5-yl-7-oxo-1,6-diazabicyclo[3.2.1]oct-3-en-6-yl]oxy]-2,2-difluoro-acetate] showed an IC50 (CTX-M-15) of 2 nM, an IC50 (KPC-2) of 33 nM and an IC50 (AmpC (P99)) of 7.4 nM. The MIC (E. coli RGN238 (OXA-1)) was over 32 µg/mL, the MIC ([1]; Klebsiella pneumoniae, BAA1898, read-out: MIC compounds of the invention alone) was over 32 µg/mL and the “MIC, combination of CAZ and compounds of the invention” value (“MIC, combination” below) ([1]; MIC of ceftazidime with compound fixed at 4 μg/mL, strain BAA-1898 (K. pneumoniae)) was 1 µg/mL. For the same compound, the MIC [2, 22] was 0.063 µg/mL, the “MIC, combination” value ([2]; MIC of ceftazidime with compound fixed at 4 μg/mL, strain P99 (E. cloacae)) was under 0.125 µg/mL and the MIC [3, 23] was over 32 µg/mL. The “MIC, combination” value ([3]; MIC of ceftazidime with compound fixed at 4 μg/mL, strain 6299 (K. pneumoniae)) was 1 µg/mL, the “MIC, combination” value [4] was at most 0.25 µg/mL and the MIC [4] was 8 µg/mL. The MIC [5] was 0.5 µg/mL, the “MIC, combination” value [6] was 0.5 µg/mL and the MIC [6] was 16 µg/mL. For the same compound, the “MIC, combination” value [7] was under 0.25 µg/mL, the MIC [7] was 1 µg/mL and the “MIC, combination” value ([8]; MIC of ceftazidime with compound fixed at 4 μg/mL, strain UFR47 (P. aeruginosa)) was under 0.25 µg/mL. For the same compound, the MIC [8, 24] was 4 µg/mL, the “MIC, combination” value ([9]; MIC of ceftazidime with compound fixed at 4 μg/mL, strain CIP105250 (P. aeruginosa)) was 8 µg/mL and the MIC ([9]; Pseudomonas aeruginosa, CIP105250, 18 h, read-out: MIC compounds of the invention alone) was over 32 µg/mL. The “MIC, combination” value ([10]; MIC of ceftazidime with compound fixed at 4 μg/mL, strain UFR59 (P. aeruginosa)) was 2 µg/mL, the MIC [10, 24] was 16 µg/mL and the “MIC, combination” value ([11]; MIC of ceftazidime with compound fixed at 4 μg/mL, strain UFR35 (P. aeruginosa)) was under 0.25 µg/mL. For the same compound, the MIC [11, 24] was 2 µg/mL, the “MIC, combination” value ([12]; MIC of ceftazidime with compound fixed at 4 μg/mL, strain CIP107051 (P. aeruginosa)) was at most 0.25 µg/mL and the MIC ([12]; Pseudomonas aeruginosa, CIP107051, 18 h, read-out: MIC compounds of the invention alone) was 16 µg/mL. The “MIC, combination” value ([13]; MIC of ceftazidime with compound fixed at 4 μg/mL, strain UFR48 (P. aeruginosa)) was 16 µg/mL, the MIC [13, 24] was 8 µg/mL and the IC50 (OXA-11) was 48 nM. For the same compound, the IC50 (AmpC (PAE)) was 220 nM, the IC50 (TEM-1) was 3 nM and the IC50 (SHV-1) was 4.6 nM. It also gave an IC50 (OXA-15) of 1.6 nM, an IC50 (OXA-1) of 17 nM and an IC50 (OXA-48) of 5.7 nM. The MIC [14] was 0.25 µg/mL (≈ 0.757 µM) and the “MIC, combination” value [14] was under 0.125 µg/mL.

With `NC[C@H]1C=C(c2cnco2)[C@@H]2CN1C(=O)N2OS(=O)(=O)[O-].O=C(O)C(F)(F)F.[Na+]` (relative stereo) [Example 1, Sodium and 2,2,2-trifluoroacetate [trans-2-(azaniumylmethyl)-4-oxazol-5-yl-7-oxo-1,6-diazabicyclo[3.2.1]oct-3-en-6-yl] sulfate] the IC50 (CTX-M-15) was 5.4 nM, the IC50 (KPC-2) was 7.8 nM and the “MIC, combination” value [4] was under 0.25 µg/mL. The MIC [4] was 2 µg/mL, the MIC [15, 22] was 16 µg/mL and the “MIC, combination” value ([15]; MIC of ceftazidime with compound fixed at 4 μg/mL, strain UFR70 (E. cloacae)) was 1 µg/mL. The “MIC, combination” value [6] was under 0.25 µg/mL, the MIC [6] was 8 µg/mL and the “MIC, combination” value [7] was under 0.25 µg/mL. The MIC [7] was 0.5 µg/mL, the IC50 (OXA-11) was 4.1 nM and the MIC [16, 22] was over 32 µg/mL. The “MIC, combination” value ([16]; MIC of ceftazidime with compound fixed at 4 μg/mL, strain UFR85 (E. cloacae)) was 2 µg/mL, the MIC [17, 23] was over 32 µg/mL and the “MIC, combination” value ([17]; MIC of ceftazidime with compound fixed at 4 μg/mL, strain UFR68 (K. pneumoniae)) was 1 µg/mL. For the same compound, the IC50 (SHV-1) was 1.3 nM, the MIC [18, 23] was over 32 µg/mL and the “MIC, combination” value ([18]; MIC of ceftazidime with compound fixed at 4 μg/mL, strain 200047 (K. pneumoniae)) was 0.5 µg/mL. For the same compound, the IC50 (OXA-15) was 0.65 nM, the IC50 (OXA-1) was 80 nM and the IC50 (OXA-48) was 0.51 nM. For the same compound, the MIC ([19]; Klebsiella oxytoca, 18 h, read-out: MIC compounds of the invention alone) was over 32 µg/mL, the “MIC, combination” value ([19]; MIC of ceftazidime with compound fixed at 4 μg/mL, strain UFR21 (K. oxytoca)) was 0.5 µg/mL and the MIC [20, 23] was over 32 µg/mL. For the same compound, the “MIC, combination” value ([20]; MIC of ceftazidime with compound fixed at 4 μg/mL, strain 160143 (K. pneumoniae)) was 1 µg/mL, the MIC ([21]; Enterobacter cloacae, read-out: MIC compounds of the invention alone) was 0.063 µg/mL and the “MIC, combination” value ([21]; MIC of ceftazidime with compound fixed at 4 μg/mL, strain 260508 (E. cloacae)) was at most 0.125 µg/mL. For the same compound, the MIC [14] was 0.031 µg/mL and the “MIC, combination” value [14] was under 0.25 µg/mL.
